Data as given in patent publication US20230014907A1, “INHIBITORS OF APOL1 AND METHODS OF USING SAME” (Vertex Pharmaceuticals Incorporated, priority 2020, published 2023).

biological target: T1, G1 APOL1 (Homo sapiens, UniProt O14791, I384M/S342G); assay: Acute APOL1 Thallium Assay with Inducible Stable Clones of HEK 293 Cells; type: cell-based; conditions: HEK 293 inducible stable clones, G1 APOL1; read-out: Thallium Assay (IC50)
T1 construct: expressed in transfected cells
T1 sequence (O14791 28-398 S342G/I384M): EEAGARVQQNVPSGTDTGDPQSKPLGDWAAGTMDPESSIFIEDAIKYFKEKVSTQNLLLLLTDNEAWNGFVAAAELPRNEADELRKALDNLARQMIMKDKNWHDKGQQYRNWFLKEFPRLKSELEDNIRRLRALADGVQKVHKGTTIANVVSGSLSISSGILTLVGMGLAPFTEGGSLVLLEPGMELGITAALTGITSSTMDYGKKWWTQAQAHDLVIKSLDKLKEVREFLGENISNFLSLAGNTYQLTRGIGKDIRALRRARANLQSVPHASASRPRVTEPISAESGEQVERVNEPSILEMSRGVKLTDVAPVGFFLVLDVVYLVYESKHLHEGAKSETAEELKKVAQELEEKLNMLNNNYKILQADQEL
From the text: Acute APOL1 Thallium Assay with Inducible Stable Clones of HEK 293 Cells
Apolipoprotein L1 (APOL1) proteins form potassium-permeable cation pores in the plasma membrane. APOL1 risk variants (G1 and G2) induce greater potassium flux than G0 in HEK293 cells. This assay exploits the permeability of thallium (Tl+) through ligand-gated potassium channels. The dye produces a bright fluorescent signal upon binding to Tl+ conducted through potassium channels. The intensity of the Tl+ signal is proportional to the number of potassium channels in the open state. Therefore, it provides a functional indication of the potassium channel activities. During the initial dye-loading step, the Tl+ indicator dye as an acetoxymethyl (AM) ester enters the cells through passive diffusion. Cytoplasm esterases cleave the AM ester and relieve its active thallium-sensitive form. The cells are then stimulated with Tl+. The increase of fluorescence in the assay represents the influx of Tl+ into the cell specifically through the potassium channel (i.e. through APOL1 pores), providing a functional measurement of potassium channel/pore activity. The Thallium assay is conducted with cells expressing G1 APOL1.
APOL1 Cell Line (HEK T-Rex Stable Inducible Cell Line) • HEK T-Rex System • Tetracycline (Tet) inducible mammalian expression system. • Stably express the Tet repressor to regulate transcription. • Expression under the full-length CMV promoter. • APOL1 stable inducible cell line Clone used: G1 DC3.25
Tissue Culture Media • Cell Culture Medium • DMEM+10% FBS+P/S+5 μg/mL blasticidin+1 μg/mL puromycin. • 500 mL DMEM+55 mL FBS+5 mL P/S+280 μL blasticidin S HCl (10 mg/mL)+56 μL puromycin (10 mg/mL). • Cell Assay Medium • DMEM with 2% FBS+penicillin/streptomycin.
Instruments and Equipment • Nuaire cell culture hood, Cat. No. 540-600 • 37° C./5% CO2 incubator link to robotic arm, Liconic: STX110 • Molecular Devices FLIPR^Tetra High throughput cellular screening system, Cat. No. FT0324, Molecular Devices • ThermoFisher MultiDrop 384, Cat. No. 5840300 • Biotek Microfill, Cat. No. ASF1000A-4145 • BioRad TC10 cell counter, Cat. No. 145-0010
Cells Scaled Up from Frozen Vials • APOL1 G1 3.25 (HEK293 T-Rex) frozen vials: 5 million cells per vial • Step 1, Day 1: Defrost frozen vial into T-225. • Step 2, Day 5: (when 85% confluent): Split one T-225 at 3×10^6 cells per flask. • Step 3, Day 8: Splits cells to set up for the assay plates as described below.
T-Rex APOL1 HEK cells are split twice per week to keep the confluence state below 85% of the culture flask surface area. Cells can be kept until passage 25. • Cell Culture Medium • DMEM high glucose+10% FBS, +P/S, +5 μg/mL blasticidin, +1 μg/mL puromycin. • 500 mL DMEM, +55 mL FBS, +5 mL P/S, +280 μL blasticidin 10 mg/mL, +56 μL Puromycin 10 mg/mL. • Assay Media • Opti-MEM reduced serum medium from Invitrogen.
Preparation of Cell Assay Plates • Culture medium is removed from the x cm^2 T-flask by aspiration. • The cell monolayer is rinsed with PBS 1× at room temperature. PBS is removed by aspiration. • Cells are trypsinized using Trypsin. • The flasks are incubated at room temperature for 2-3 minutes. • Complete DMEM medium is then added. Cell suspension is then transferred to a 50 mL Falcon polypropylene tube. • Cells are then counted using a BioRad TC10 cell counter and the required amount of cells are centrifuged at 1200 RPM for 5 minutes. Required amount is 1.3×10^6 cells/mL APOL1 T-Rex HEK cells. • The pellet is suspended in the assay medium. • Using the MultiDrop, add 20 μL to each well (corresponds to 26000 cells total per well) of a 384-well black, transparent, flat bottom Poly-D coated plate. • Tetracycline as prepared in the following section is added to the cells before plating to induce APOL1 expression. • Plates are left at room temperature for 20 to 30 minutes before incubation at 37° C. and 5% CO2. […]

IC50, 250 to 1000 nM:
CC(C)(C)OC(=O)NC(CC(N)=O)C(=O)NCCc1c(-c2ccc(F)cc2)[nH]c2c(F)cc(F)cc12 (centres unmarked) [Compound 304, tert-butyl N-[3-amino-1-[2-[5,7-difluoro-2-(4-fluorophenyl)-1H-indol-3-yl]ethylcarbamoyl]-3-oxo-propyl]carbamate]
CC(CCO)NC(=O)CCc1c(-c2ccc(F)cc2)[nH]c2c(F)cc(Cl)cc12 (racemic) [Compound 200]
O=C(NC(CO)CF)OCCc1c(-c2ccc(F)cc2)[nH]c2c(F)cc(F)cc12 (centres unmarked) [Compound 471]
CC(NC(=O)OCCc1c(-c2ccc(F)cc2)[nH]c2c(F)cc(F)cc12)C(N)=O (racemic) [Compound 460]
Cc1cc(F)c2[nH]c(-c3ccc(F)cc3)c(CCC(=O)NC3(CO)CCC3)c2c1 [Compound 216]
O=C(NCCc1c(-c2ccc(F)cc2)[nH]c2c(F)cc(F)cc12)C1CC1(F)F (centres unmarked) [Compound 404]
O=C(NC1CC(O)C1)OCCc1c(-c2ccc(F)cc2)[nH]c2c(F)cc(F)cc12 (centres unmarked) [Compound 466]
Cn1nccc1C(=O)NCCc1c(-c2ccc(F)cc2)[nH]c2c(F)cc(F)cc12 [Compound 392]
Cn1ccnc1C(=O)NCCc1c(-c2ccc(F)cc2)[nH]c2c(F)cc(F)cc12 [Compound 388]
O=C(NCCc1c(-c2ccc(F)cc2)[nH]c2c(F)cc(F)cc12)C(O)CO (centres unmarked) [Compound 310]
CC(O)C(C)NC(=O)OCCc1c(-c2ccc(F)cc2)[nH]c2c(F)cc(F)cc12 (mixture of isomers) [Compound 453]
CC1(CO)CCN1C(=O)CCc1c(-c2ccc(F)cc2)[nH]c2c(F)cc(F)cc12 (centres unmarked) [Compound 110]
NC1(C(=O)NCCc2c(-c3ccc(F)cc3)[nH]c3c(F)cc(F)cc23)CCC1 [Compound 349]
O=C(NCCc1c(-c2ccc(F)cc2)[nH]c2c(F)cc(F)cc12)NC(CO)CF (centres unmarked) [Compound 259, 1-[2-[5,7-difluoro-2-(4-fluorophenyl)-1H-indol-3-yl]ethyl]-3-[1-(fluoromethyl)-2-hydroxy-ethyl]urea]

IC50, < 250 nM:
O=C(NCCc1c(-c2ccc(F)cc2)[nH]c2c(F)cc(F)cc12)N[C@H](CO)C(F)(F)F [Compound 262]
C[C@H](O)[C@H](CO)NC(=O)OCCc1c(-c2ccc(F)cc2)[nH]c2c(F)cc(F)cc12 [Compound 442]
O=C(NC(CO)C1CC1)OCCc1c(-c2ccc(F)cc2)[nH]c2c(F)cc(F)cc12 (centres unmarked) [Compound 451]
O=C(NCC(F)F)OCCc1c(-c2ccc(F)cc2)[nH]c2c(F)cc(F)cc12 [Compound 449]
O=C(NC1(CO)CCC1)OCCc1c(-c2ccc(F)cc2)[nH]c2c(F)cc(F)cc12 [Compound 436]
C[C@@H](CO)NC(=O)OCCc1c(-c2ccc(F)cc2)[nH]c2c(F)cc(F)cc12 [Compound 440]

IC50, > 1000 nM:
O=S(=O)(CCO)NCCc1c(-c2ccc(F)cc2)[nH]c2c(F)cc(F)cc12 [Compound 422]
O=C(NCCc1c(-c2ccc(F)cc2)[nH]c2c(F)cc(F)cc12)[C@H]1CCOC1 [Compound 407]
O=C(CN1CCCC1=O)NCCc1c(-c2ccc(F)cc2)[nH]c2c(F)cc(F)cc12 [Compound 375]
O=C(CC1CC(=O)NC(=O)C1)NCCc1c(-c2ccc(F)cc2)[nH]c2c(F)cc(F)cc12 [Compound 318]
Cc1cc(F)c2[nH]c(-c3ccc(F)cc3)c(CCC(=O)N[C@H](CO)C(N)=O)c2c1 [Compound 220]
CS(=O)(=O)NCC(=O)NCCc1c(-c2ccc(F)cc2)[nH]c2c(F)cc(F)cc12 [Compound 321]
O=C(NCc1ncc[nH]1)OCCc1c(-c2ccc(F)cc2)[nH]c2c(F)cc(F)cc12 [Compound 484]
O=C(CNC(=O)NCCc1c(-c2ccc(F)cc2)[nH]c2c(F)cc(F)cc12)NO [Compound 260]
Cn1cc(CNC(=O)CCCc2c(-c3ccc(F)cc3)[nH]c3c(F)cc(F)cc23)nn1 [Compound 251]
O=C1CC(C(=O)NCCc2c(-c3ccc(F)cc3)[nH]c3c(F)cc(F)cc23)CCN1 (centres unmarked) [Compound 331]
Cn1ccc(C(=O)NCCc2c(-c3ccc(F)cc3)[nH]c3c(F)cc(F)cc23)n1 [Compound 390]
CC(CC(N)=O)N(C)C(=O)NCCc1c(-c2ccc(F)cc2)[nH]c2c(F)cc(F)cc12 (racemic) [Compound 290]
Cc1cc(F)c2[nH]c(-c3ccc(F)cc3)c(CCC(=O)N[C@@H](C)CO)c2c1 [Compound 222]
O=C(NCCc1c(-c2ccc(F)cc2)[nH]c2c(F)cc(F)cc12)N[C@@H]1CC[C@@H](O)C1 [Compound 273]
O=C(Nc1cc(=O)[nH][nH]1)OCCc1c(-c2ccc(F)cc2)[nH]c2c(F)cc(F)cc12 [Compound 488]
CC(C)(C)OC(=O)N[C@@H](CO)C(=O)NCCc1c(-c2ccc(F)cc2)[nH]c2c(F)cc(F)cc12 [Compound 308]
Cn1nccc1CNC(=O)CCCc1c(-c2ccc(F)cc2)[nH]c2c(F)cc(F)cc12 [Compound 255]
O=CNCCc1c(-c2ccc(F)cc2)[nH]c2c(F)cc(F)cc12 [Compound 419, N-[2-[5,7-difluoro-2-(4-fluorophenyl)-1H-indol-3-yl]ethyl]formamide]
Cc1cc(F)c2[nH]c(-c3ccc(F)cc3)c(CCC(=O)NC(CO)CO)c2c1 [Compound 219]
O=C(NCCc1c(-c2ccc(F)cc2)[nH]c2c(F)cc(F)cc12)c1cncc(F)c1 [Compound 377]
O=C(NCCc1c(-c2ccc(F)cc2)[nH]c2c(F)cc(F)cc12)NCc1cccc(O)c1 [Compound 264]
O=C(NCCc1c(-c2ccc(F)cc2)[nH]c2c(F)cc(F)cc12)c1ccc[nH]1 [Compound 354]
O=C(NCc1cccnc1)OCCc1c(-c2ccc(F)cc2)[nH]c2c(F)cc(F)cc12 [Compound 497]
O=C1NC[C@@H](O)[C@@H]1NCCc1c(-c2ccc(F)cc2)[nH]c2c(F)cc(F)cc12 [Compound 427, (3S,4R)-3-((2-(5,7-difluoro-2-(4-fluorophenyl)-1H-indol-3-yl)ethyl)amino)-4-hydroxypyrrolidin-2-one]
O=C(NCCc1c(-c2ccc(F)cc2)[nH]c2c(F)cc(F)cc12)N[C@@H]1CC[C@H](O)C1 [Compound 272]
CC(CCO)NC(=O)CCc1c(-c2ccc(F)cc2)[nH]c2c(F)cc(F)cc12 (racemic) [Compound 147]
O=C(NCCc1c(-c2ccc(F)cc2)[nH]c2c(F)cc(F)cc12)NCC1(O)CCCC1 [Compound 266]
